# Reference: ChEMBL document CHEMBL4715697, “Synthesis and biological activity of benzamide DNA minor groove binders” (2016)
# Tests used:
# Format in all cases: functional
# OVCAR-3 [1] = test: Growth inhibition of human OVCAR-3 cells assessed as cell growth at 100 uM incubated for 48 hrs by sulforhodamine B assay relative to control; settings: read-out: Activity
# UACC-257 = test: Growth inhibition of human UACC-257 cells assessed as cell growth at 100 uM incubated for 48 hrs by sulforhodamine B assay relative to control; settings: read-out: Activity
# OVCAR-3 [2] = test: Growth inhibition of human OVCAR-3 cells assessed as cell growth at 0.1 uM incubated for 48 hrs by sulforhodamine B assay relative to control; settings: read-out: Activity
# U-251 = test: Growth inhibition of human U-251 cells assessed as cell growth at 0.1 uM incubated for 48 hrs by sulforhodamine B assay relative to control; settings: read-out: Activity
# MCF7 [3] = test: Growth inhibition of human MCF7 cells assessed as cell growth at 100 uM incubated for 48 hrs by sulforhodamine B assay relative to control; settings: read-out: Activity
# M14 = test: Growth inhibition of human M14 cells assessed as cell growth at 0.01 uM incubated for 48 hrs by sulforhodamine B assay relative to control; settings: read-out: Activity
# SK-OV-3 = test: Growth inhibition of human SK-OV-3 cells incubated for 48 hrs by sulforhodamine B assay
# MCF7 [4] = test: Growth inhibition of human MCF7 cells assessed as cell growth at 0.01 uM incubated for 48 hrs by sulforhodamine B assay relative to control; settings: read-out: Activity
# DU-145 = test: Growth inhibition of human DU-145 cells assessed as cell growth at 0.1 uM incubated for 48 hrs by sulforhodamine B assay relative to control; settings: read-out: Activity
# NCI-H460 [5] = test: Growth inhibition of human NCI-H460 cells assessed as cell growth at 0.1 uM incubated for 48 hrs by sulforhodamine B assay relative to control; settings: read-out: Activity
# SNB-75 = test: Growth inhibition of human SNB-75 cells assessed as cell growth at 0.01 uM incubated for 48 hrs by sulforhodamine B assay relative to control; settings: read-out: Activity
# A549 = test: Growth inhibition of human A549/ATCC cells assessed as cell growth at 1 uM incubated for 48 hrs by sulforhodamine B assay relative to control; settings: read-out: Activity
# K562 = test: Growth inhibition of human K562 cells assessed as cell growth at 0.1 uM incubated for 48 hrs by sulforhodamine B assay relative to control; settings: read-out: Activity
# 786-0 [6] = test: Growth inhibition of human 786-0 cells assessed as cell growth at 1 uM incubated for 48 hrs by sulforhodamine B assay relative to control; settings: read-out: Activity
# SF-539 = test: Growth inhibition of human SF-539 cells assessed as cell growth at 0.01 uM incubated for 48 hrs by sulforhodamine B assay relative to control; settings: read-out: Activity
# NCI-H460 [7] = test: Growth inhibition of human NCI-H460 cells assessed as cell growth at 100 uM incubated for 48 hrs by sulforhodamine B assay relative to control; settings: read-out: Activity
# PC-3 = test: Growth inhibition of human PC-3 cells assessed as cell growth at 0.1 uM incubated for 48 hrs by sulforhodamine B assay relative to control; settings: read-out: Activity
# BT-549 = test: Growth inhibition of human BT-549 cells assessed as cell growth at 100 uM incubated for 48 hrs by sulforhodamine B assay relative to control; settings: read-out: Activity
# HOP-62 = test: Growth inhibition of human HOP-62 cells assessed as cell growth at 0.01 uM incubated for 48 hrs by sulforhodamine B assay relative to control; settings: read-out: Activity
# A498 [8] = test: Growth inhibition of human A498 cells assessed as cell growth at 100 uM incubated for 48 hrs by sulforhodamine B assay relative to control; settings: read-out: Activity
# SK-MEL-5 = test: Growth inhibition of human SK-MEL-5 cells incubated for 48 hrs by sulforhodamine B assay
# NCI-H460 [9] = test: Growth inhibition of human NCI-H460 cells assessed as cell growth at 0.01 uM incubated for 48 hrs by sulforhodamine B assay relative to control; settings: read-out: Activity
# KM12 = test: Growth inhibition of human KM12 cells assessed as cell growth at 100 uM incubated for 48 hrs by sulforhodamine B assay relative to control; settings: read-out: Activity
# CCRF-CEM = test: Growth inhibition of human CCRF-CEM cells assessed as cell growth at 1 uM incubated for 48 hrs by sulforhodamine B assay relative to control; settings: read-out: Activity
# MDA-MB-231 [10] = test: Growth inhibition of human MDA-MB-231 cells assessed as cell growth at 0.1 uM incubated for 48 hrs by sulforhodamine B assay relative to control; settings: read-out: Activity
# SK-MEL-28 = test: Growth inhibition of human SK-MEL-28 cells assessed as cell growth at 0.01 uM incubated for 48 hrs by sulforhodamine B assay relative to control; settings: read-out: Activity
# NCI-H522 = test: Growth inhibition of human NCI-H522 cells assessed as cell growth at 0.01 uM incubated for 48 hrs by sulforhodamine B assay relative to control; settings: read-out: Activity
# MDA-MB-231 [11] = test: Growth inhibition of human MDA-MB-231 cells assessed as cell growth at 100 uM incubated for 48 hrs by sulforhodamine B assay relative to control; settings: read-out: Activity
# HCC 2998 = test: Growth inhibition of human HCC 2998 cells assessed as cell growth at 0.1 uM incubated for 48 hrs by sulforhodamine B assay relative to control; settings: read-out: Activity
# CAKI-1 = test: Growth inhibition of human CAKI-1 cells assessed as cell growth at 0.1 uM incubated for 48 hrs by sulforhodamine B assay relative to control; settings: read-out: Activity
# NCI-H322M = test: Growth inhibition of human NCI-H322M cells assessed as cell growth at 0.01 uM incubated for 48 hrs by sulforhodamine B assay relative to control; settings: read-out: Activity
# 786-0 [12] = test: Growth inhibition of human 786-0 cells assessed as cell growth at 0.01 uM incubated for 48 hrs by sulforhodamine B assay relative to control; settings: read-out: Activity
# Malme-3M [13] = test: Growth inhibition of human Malme-3M cells assessed as cell growth at 100 uM incubated for 48 hrs by sulforhodamine B assay relative to control; settings: read-out: Activity
# NCI-H460 [14] = test: Growth inhibition of human NCI-H460 cells incubated for 48 hrs by sulforhodamine B assay
# Malme-3M [15] = test: Growth inhibition of human Malme-3M cells incubated for 48 hrs by sulforhodamine B assay
# A498 [16] = test: Growth inhibition of human A498 cells assessed as cell growth at 1 uM incubated for 48 hrs by sulforhodamine B assay relative to control; settings: read-out: Activity
# EKVX = test: Growth inhibition of human EKVX cells assessed as cell growth at 100 uM incubated for 48 hrs by sulforhodamine B assay relative to control; settings: read-out: Activity
smiles,measurement,setting,value
CC(=O)Nc1cc(CO[Si](C)(C)C(C)(C)C)cc(NC(=O)c2ccc(C(=O)Nc3cccc(NC(=O)CCCN(C)C)c3)cc2)c1,growth at 100 µM,OVCAR-3 [1],105%
same,growth at 100 µM,UACC-257,81%
same,growth at 0.1 µM,OVCAR-3 [2],109%
same,growth at 0.1 µM,U-251,100%
same,growth at 100 µM,MCF7 [3],32%
same,growth at 0.01 µM,M14,97%
same,GI50,SK-OV-3; read-out: GI50,> 75 µM
same,LC50 (concentration killing 50% of cells),SK-OV-3; read-out: LC50,> 75 µM
same,TGI,SK-OV-3; read-out: TGI,> 75 µM
same,GI50,SK-OV-3; read-out: pGI50 (converted),> 75.9 µM
same,LC50 (concentration killing 50% of cells),SK-OV-3; read-out: pLC50 (converted),> 75.9 µM
same,TGI,SK-OV-3; read-out: pTGI,> 75.9 µM
same,growth at 0.01 µM,MCF7 [4],94%
same,growth at 0.1 µM,DU-145,100%
same,growth at 0.1 µM,NCI-H460 [5],99%
same,growth at 0.01 µM,SNB-75,93%
same,growth at 1 µM,A549,100%
same,growth at 0.1 µM,K562,96%
same,growth at 1 µM,786-0 [6],93%
same,growth at 0.01 µM,SF-539,95%
same,growth at 100 µM,NCI-H460 [7],89%
same,growth at 0.1 µM,PC-3,97%
same,growth at 100 µM,BT-549,86%
same,growth at 0.01 µM,HOP-62,97%
same,growth at 100 µM,A498 [8],51%
same,GI50,SK-MEL-5; read-out: GI50,> 75 µM
same,LC50,SK-MEL-5; read-out: LC50,> 75 µM
same,TGI,SK-MEL-5; read-out: TGI,> 75 µM
same,GI50,SK-MEL-5; read-out: pGI50 (converted),> 75.9 µM
same,LC50,SK-MEL-5; read-out: pLC50 (converted),> 75.9 µM
same,TGI,SK-MEL-5; read-out: pTGI,> 75.9 µM
same,growth at 0.01 µM,NCI-H460 [9],102%
same,growth at 100 µM,KM12,88%
same,growth at 1 µM,CCRF-CEM,98%
same,growth at 0.1 µM,MDA-MB-231 [10],95%
same,growth at 0.01 µM,SK-MEL-28,98%
same,growth at 0.01 µM,NCI-H522,89%
same,growth at 100 µM,MDA-MB-231 [11],96%
same,growth at 0.1 µM,HCC 2998,97%
same,growth at 0.1 µM,CAKI-1,91%
same,growth at 0.01 µM,NCI-H322M,102%
same,growth at 0.01 µM,786-0 [12],97%
same,growth at 100 µM,Malme-3M [13],33%
same,GI50,NCI-H460 [14]; read-out: GI50,> 75 µM
same,CC50,NCI-H460 [14]; read-out: LC50 (the source's name),> 75 µM
same,TGI,NCI-H460 [14]; read-out: TGI,> 75 µM
same,GI50,NCI-H460 [14]; read-out: pGI50 (converted),> 75.9 µM
same,CC50,NCI-H460 [14]; read-out: pLC50 (the source's name) (converted),> 75.9 µM
same,TGI,NCI-H460 [14]; read-out: pTGI,> 75.9 µM
same,GI50,Malme-3M [15]; read-out: GI50,36.3 µM
same,LC50 (concentration killing 50% of cells),Malme-3M [15]; read-out: LC50,> 75 µM
same,TGI,Malme-3M [15]; read-out: TGI,> 75 µM
same,GI50,Malme-3M [15]; read-out: pGI50 (converted),36.3 µM
same,LC50 (concentration killing 50% of cells),Malme-3M [15]; read-out: pLC50 (converted),> 75.9 µM
same,TGI,Malme-3M [15]; read-out: pTGI,> 75.9 µM
same,growth at 1 µM,A498 [16],48%
same,growth at 100 µM,EKVX,82%
